Experiments:
Postia placenta = test: Standard soil-block decay test (AWPA Standard Test Method E-10); assay type: cell-based; conditions: 2HT at 0.8% in the treating solution
Excerpt: The vertical axis is percent weight loss of the wood blocks (negative numbers represent weight gain), and the horizontal axis is ACQ® wood preservative retention in the wood blocks expressed on a weight preservative/weight wood basis. […] The toxic threshold of ACQ® wood preservative against Postia placenta is estimated to be 0.7-0.8% in this test (FIG. 4).

[1] = test system: soil-bed decay of Southern Pine Mini-Stakes; test: Accelerated Soil-bed Decay Test of Southern Pine Mini-Stakes (AWPA Standard Test Method E14); conditions: addition of 0.8% 2HT; all three retention levels; after about 10 years exposure
Excerpt: A decay rating of 100 means no decay, and a rating of 0 indicates failure due to decay.

Substance: dimethyl di(hydrogenated tallow) ammonium compound [2HT]
- effect on toxicity of ACQ wood preservative toward Postia placenta (Postia placenta): almost double
- effect on performance of ACQ wood preservative in soil-bed decay test [1]: improves the performance

— US7993756B2, “Long-chain quaternary ammonium compounds as wood treatment agents” (Viance, LLC, priority 2005, dated 2011)
